Source: US20250195519A1, “COMBINATION OF DASATINIB AND LOVASTATIN FOR USE IN METHODS FOR THE TREATMENT OF CARDIAC FIBROSIS” (INSERM (INSTITUT NATIONAL DE LA SANTÉ ET DE LA RECHERCHE …, priority 2022, published 2025)
Read-outs that look alike come from different tables or passages of the source.

Test system: human cardiac fibroblasts
Conditions: 72 h, 10 ng/ml TGFβ; for effect on TGFβ-induced collagen production: Sirius Red
Protocol: Primary cardiac fibroblasts were isolated and cultured according to the method described previously [11]. […] The suspension was centrifuged at 300 g for 5 min and the cell pellet was resuspended in DMEM F12 medium (Sigma D6434) supplemented with 10% FBS, penicillin (20 U/mL)-streptomycin (20 μg/mL) and 2 mM glutamine and cultured in a 37° C., 5% CO2 incubator. Primary cardiac fibroblasts were used up to passage 3. Cardiac fibroblasts were exposed to 10 ng/ml TGFβ (T) for 72 h in the presence or absence of 5 μM lovastatin (L) or 5 nM dasatinib (D) or combination of 5 μM lovastatin and 5 nM dasatinib (DL).
Following treatment, cardiac fibroblasts were fixed in methanol, and incubated in the 0.1% Picrosirius red staining solution (Sigma-Aldrich, France) as per manufacturer's instructions.
Picrosirius red was solubilised in 0.1 N sodium hydroxide and the optical density was read at 540 nm (SERLABO Technologies, France).
Data are expressed as mean±SEM. Comparison between two groups was performed by Student's two-tailed t-test while comparison of multiple groups was performed by one-way ANOVA followed by a Bonferroni's post hoc test using GraphPad Prism version 5.00 (GraphPad Software, Inc).

SMILES | collagen values relative to control (5 μM lovastatin) | effect on TGFβ-induced collagen production (5 μM lovastatin) | collagen values relative to control (5 nM dasatinib) | effect on TGFβ-induced collagen production (5 nM dasatinib)
CCC(C)C(=O)OC1CC(C)C=C2C=CC(C)C(CCC3CC(O)CC(=O)O3)C21 (stereo not shown) [lovastatin, [8-[2-(4-hydroxy-6-oxo-oxan-2-yl)ethyl]-3,7-dimethyl-1,2,3,7,8,8a-hexahydronaphthalen-1-yl] 2-methylbutanoate] | did not reach control values | modest but significant effects | – | –
Cc1nc(Nc2ncc(C(=O)Nc3c(C)cccc3Cl)s2)cc(N2CCN(CCO)CC2)n1 [dasatinib, N-(2-chloro-6-methylphenyl)-2-[6-[4-(2-hydroxyethyl)-1-piperazinyl]-2-methyl-4-pyrimidinyl]amino]-5-thiazole carboxamide monohydrate] | – | – | did not reach control values | modest but significant effects
